18 compounds from patent US9969742B2, “Imidazotriazinone compounds” (Ironwood Pharmaceuticals, Inc., priority 2012, dated 2018) can be followed below.

What all share (type): biochemical
The target of one test is T1, PDE1A (Homo sapiens, UniProt P54750).
T1 construct: purchased Reaction Biology Corporation, Malvern, Pa
The experiment in a line: Phosphodiesterase enzyme screening assay, PDE1A. An outline of the steps: (§1)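 Read-out was electrophoretic mobility-shift separation on chip of fluorescent cyclic nucleotide from 5′-AMP/5′-GMP, with inhibition or enhancement judged against control wells (quadruplicate means). Reactions lasted 1 h at RT in HEPES pH 7.5 buffer with MgCl2, DTT and Brij plus 4.0 μM cGMP substrate, then were halted with EDTA stop buffer.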

In a further test the target is T2, PDE9A2 (Homo sapiens, UniProt O76083).
T2 construct: purchased Reaction Biology Corporation, Malvern, Pa
T2 sequence (O76083 1-533 isoform O76083-2): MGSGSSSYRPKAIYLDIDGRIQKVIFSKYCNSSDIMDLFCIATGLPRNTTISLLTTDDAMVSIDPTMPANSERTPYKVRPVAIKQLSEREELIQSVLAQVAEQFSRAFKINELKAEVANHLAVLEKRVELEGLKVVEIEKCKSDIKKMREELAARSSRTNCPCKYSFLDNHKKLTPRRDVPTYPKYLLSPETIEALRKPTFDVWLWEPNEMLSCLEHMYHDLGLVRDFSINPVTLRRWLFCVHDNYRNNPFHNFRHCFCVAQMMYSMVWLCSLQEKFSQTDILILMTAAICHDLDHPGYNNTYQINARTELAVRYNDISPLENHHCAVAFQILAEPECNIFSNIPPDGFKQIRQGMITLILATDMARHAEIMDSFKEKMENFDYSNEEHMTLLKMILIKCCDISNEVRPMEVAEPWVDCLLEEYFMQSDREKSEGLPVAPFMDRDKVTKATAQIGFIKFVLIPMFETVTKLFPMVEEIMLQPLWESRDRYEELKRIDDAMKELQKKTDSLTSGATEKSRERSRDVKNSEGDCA
The experiment in a line: Phosphodiesterase enzyme screening assay, PDE9A2. Summed up: as §1

The target of another test is T3, PDE1B (Homo sapiens, UniProt Q01064).
T3 construct: purchased Reaction Biology Corporation, Malvern, Pa
T3 sequence (Q01064 whole entry): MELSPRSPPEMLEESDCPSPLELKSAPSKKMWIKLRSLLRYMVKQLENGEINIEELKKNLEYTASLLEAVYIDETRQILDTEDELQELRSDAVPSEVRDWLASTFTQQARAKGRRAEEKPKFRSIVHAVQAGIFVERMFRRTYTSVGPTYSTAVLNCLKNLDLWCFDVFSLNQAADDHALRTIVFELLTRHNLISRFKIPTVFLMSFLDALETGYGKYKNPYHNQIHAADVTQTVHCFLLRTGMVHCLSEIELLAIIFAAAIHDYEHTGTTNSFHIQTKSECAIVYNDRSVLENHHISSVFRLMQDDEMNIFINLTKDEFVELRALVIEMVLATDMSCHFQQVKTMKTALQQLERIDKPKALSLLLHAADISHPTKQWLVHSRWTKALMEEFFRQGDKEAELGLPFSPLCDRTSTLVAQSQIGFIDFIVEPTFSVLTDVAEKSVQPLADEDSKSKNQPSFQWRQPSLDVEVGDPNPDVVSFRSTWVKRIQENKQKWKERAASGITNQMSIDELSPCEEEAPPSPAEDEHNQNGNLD
The experiment in a line: Phosphodiesterase enzyme screening assay, PDE1B. An outline of the steps:
as §1

Where [1] appears, read: Table 1, ratio of IC50 values, value greater than 1 indicates greater selectivity for PDE9A2.
Setting [2] is: Table 1, 10 concentrations, 4.0 μM cGMP substrate, 1 hour at R.T., read-out: Band (PDE9A2 IC50).
Where [3] appears, read: ratio of IC50 values, PDE1A versus PDE9A2, value greater than 1 indicates greater selectivity for PDE9A2.
[4] abbreviates: ratio of IC50 values, PDE1B versus PDE9A2, value greater than 1 indicates greater selectivity for PDE9A2.
Where [5] appears, read: 4.0 μM cGMP substrate, 1 hour at R.T., read-out: Band (PDE9A2 IC50).
Setting [6] is: ratio of IC50 values, value greater than 1 indicates greater selectivity for PDE9A2.

pIC50: −log10 of the molar value. Like-named read-outs stand apart in the source and are kept apart here.

T1 sequence (P54750 whole entry): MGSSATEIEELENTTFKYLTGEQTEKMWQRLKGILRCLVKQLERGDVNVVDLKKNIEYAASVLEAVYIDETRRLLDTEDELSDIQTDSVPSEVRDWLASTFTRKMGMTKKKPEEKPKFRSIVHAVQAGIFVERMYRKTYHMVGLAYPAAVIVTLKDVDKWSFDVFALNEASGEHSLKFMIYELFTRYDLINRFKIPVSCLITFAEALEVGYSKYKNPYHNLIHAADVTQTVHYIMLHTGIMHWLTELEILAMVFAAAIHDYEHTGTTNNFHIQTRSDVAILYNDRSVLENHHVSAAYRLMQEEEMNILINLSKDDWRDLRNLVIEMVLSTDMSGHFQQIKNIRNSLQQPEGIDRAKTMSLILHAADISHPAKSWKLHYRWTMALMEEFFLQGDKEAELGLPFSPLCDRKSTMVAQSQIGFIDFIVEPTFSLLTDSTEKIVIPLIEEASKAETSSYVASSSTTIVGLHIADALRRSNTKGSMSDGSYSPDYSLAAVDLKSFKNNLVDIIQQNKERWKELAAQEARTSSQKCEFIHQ

Take `CC1CN(C(=O)c2ccc3ccccc3n2)CC1c1nn2c(C3CCOCC3)ncc2c(=O)[nH]1` (single isomer, unassigned; (-)) [(−)-2-((3,4-trans)-4-methyl-1-(quinoline-2-carbonyl)pyrrolidin-3-yl)-7-(tetrahydro-2H-pyran-4-yl)imidazo[5,1-f][1,2,4]triazin-4(3H)-one]: on PDE1A (setting [1]), the “PDE1A selectivity (versus PDE9A2)” value amounted to 25. Also, on PDE9A2 (setting [2]), the pIC50 is over 6.00. The “PDE1B selectivity (versus PDE9A2)” value at PDE1B (setting [1]) is recorded as 59.
As for `Cc1cc(F)c(F)cc1-c1ncc2c(=O)[nH]c(C3CN(Cc4cn5ccccc5n4)CC3C)nn12` (single isomer, unassigned; (+)) [(+)-7-(4,5-difluoro-2-methylphenyl)-2-((3,4-trans)-1-(imidazo[1,2-a]pyridin-2-ylmethyl)-4-methylpyrrolidin-3-yl)imidazo[5,1-f][1,2,4]triazin-4(3H)-one], on PDE1A (setting [3]), the “PDE1A selectivity (versus PDE9A2)” value stood at 2510. Further, the pIC50 on PDE9A2 (read-out: Band (PDE9A2 IC50)) is over 6.00. For the same compound, the “PDE1B selectivity (versus PDE9A2)” value on PDE1B (setting [4]) is recorded as 9350.
Take `CC1CN(Cc2ccc(F)cc2)CC1c1nn2c(-c3ccccc3F)ncc2c(=O)[nH]1` (single isomer, unassigned; (+)) [(+)-2-((3,4-trans)-1-(4-fluorobenzyl)-4-methylpyrrolidin-3-yl)-7-(2-fluorophenyl)imidazo[5,1-f][1,2,4]triazin-4(3H)-one]: the “PDE1A selectivity (versus PDE9A2)” value on PDE1A (ratio of IC50 values PDE1A / PDE9A2, value greater than 1 indicates greater selectivity for PDE9A2) was found to be 62. Moreover, the pIC50 at PDE9A2 (setting [5]) was over 6.00. In addition, at PDE1B (ratio of IC50 values PDE1B / PDE9A2, value greater than 1 indicates greater selectivity for PDE9A2), the “PDE1B selectivity (versus PDE9A2)” value is given as 165.
In the case of `CC1CN(Cc2cnn3c2CCCC3)CC1c1nn2c(C3CCOCC3)ncc2c(=O)[nH]1` (single isomer, unassigned; (+)) [(+)-2-((3,4-trans)-4-methyl-1-((4,5,6,7-tetrahydropyrazolo[1,5-a]pyridin-3-yl)methyl)pyrrolidin-3-yl)-7-(tetrahydro-2H-pyran-4-yl)imidazo[5,1-f][1,2,4]triazin-4(3H)-one], the “PDE1A selectivity (versus PDE9A2)” value on PDE1A (setting [6]) is recorded as 337. The pIC50 at PDE9A2 (read-out: Band (PDE9A2 IC50)) was over 6.00. Moreover, the “PDE1B selectivity (versus PDE9A2)” value at PDE1B (setting [6]) is 337.
With `CC1CN(Cc2ccncn2)CC1c1nn2c(C3CCOCC3)ncc2c(=O)[nH]1` (single isomer, unassigned; (+)) [(+)-2-((3,4-trans)-4-methyl-1-(pyrimidin-4-ylmethyl)pyrrolidin-3-yl)-7-(tetrahydro-2H-pyran-4-yl)imidazo[5,1-f][1,2,4]triazin-4(3H)-one], the “PDE1A selectivity (versus PDE9A2)” value on PDE1A (setting [1]) is on record as 136. Also, the pIC50 at PDE9A2 (setting [2]) was over 6.00. Further, on PDE1B (setting [1]), the “PDE1B selectivity (versus PDE9A2)” value worked out at 174.
Regarding `Cc1ccccc1-c1ncc2c(=O)[nH]c(C3CN(Cc4cccnc4)CC3C)nn12` (single isomer, unassigned; (+)) [(+)-2-((3,4-trans)-4-methyl-1-(pyridin-3-ylmethyl)pyrrolidin-3-yl)-7-(o-tolyl)imidazo[5,1-f][1,2,4]triazin-4(3H)-one], the “PDE1A selectivity (versus PDE9A2)” value on PDE1A (setting [3]) was found to be 103. Moreover, at PDE9A2 (read-out: Band (PDE9A2 IC50)), the pIC50 is over 6.00. Moreover, the “PDE1B selectivity (versus PDE9A2)” value on PDE1B (setting [4]) is on record as 183.
With `CC1CN(Cc2ccc(C(F)(F)F)nc2)CC1c1nn2c(C3CCOCC3)ncc2c(=O)[nH]1` (single isomer, unassigned; (+)) [(+)-2-((3,4-trans)-4-methyl-1-((6-(trifluoromethyl)pyridin-3-yl)methyl)pyrrolidin-3-yl)-7-(tetrahydro-2H-pyran-4-yl)imidazo[5,1-f][1,2,4]triazin-4(3H)-one], the “PDE1A selectivity (versus PDE9A2)” value at PDE1A (setting [1]) is 333. Also, the pIC50 on PDE9A2 (setting [2]) was over 6.00. Moreover, the “PDE1B selectivity (versus PDE9A2)” value on PDE1B (setting [1]) is listed as 980.
The like results for `CC1CN(Cc2ccc3ncccc3c2)CC1c1nn2c(C3CCOCC3)ncc2c(=O)[nH]1` (single isomer, unassigned; (+)) [(+)-2-((3,4-trans)-4-methyl-1-(quinolin-6-ylmethyl)pyrrolidin-3-yl)-7-(tetrahydro-2H-pyran-4-yl)imidazo[5,1-f][1,2,4]triazin-4(3H)-one] were, in that order, 520, over 6.00 and 1525.
For the compound `CC1CN(Cc2cc(Cl)cc(C(F)(F)F)c2)CC1c1nn2c(C3CCOCC3)ncc2c(=O)[nH]1` (single isomer, unassigned; (+)) [(+)-2-((3,4-trans)-1-(3-chloro-5-(trifluoromethyl)benzyl)-4-methylpyrrolidin-3-yl)-7-(tetrahydro-2H-pyran-4-yl)imidazo[5,1-f][1,2,4]triazin-4(3H)-one], the “PDE1A selectivity (versus PDE9A2)” value on PDE1A (ratio of IC50 values PDE1A / PDE9A2, value greater than 1 = greater selectivity for PDE9A2) worked out at 236. Moreover, the pIC50 at PDE9A2 (setting [5]) was over 6.00. For the same compound, the “PDE1B selectivity (versus PDE9A2)” value on PDE1B (ratio of IC50 values PDE1B / PDE9A2, value greater than 1 = greater selectivity for PDE9A2) came to 105.
As to `CC1CN(Cc2ncon2)CC1c1nn2c(C3CCOCC3)ncc2c(=O)[nH]1` (single isomer, unassigned; (+)) [(+)-2-((3,4-trans)-1-((1,2,4-oxadiazol-3-yl)methyl)-4-methylpyrrolidin-3-yl)-7-(tetrahydro-2H-pyran-4-yl)imidazo[5,1-f][1,2,4]triazin-4(3H)-one], the “PDE1A selectivity (versus PDE9A2)” value on PDE1A (setting [6]) is 35. At PDE9A2 (read-out: Band (PDE9A2 IC50)), the negative-log IC50 (pIC50) was over 6.00. On PDE1B (setting [6]), the “PDE1B selectivity (versus PDE9A2)” value is 63.
With `Cc1ccc(F)cc1-c1ncc2c(=O)[nH]c(C3CN(Cc4ccc(Cl)cc4)CC3C)nn12` (single isomer, unassigned; (-)) [(−)-2-((3,4-trans)-1-(4-chlorobenzyl)-4-methylpyrrolidin-3-yl)-7-(5-fluoro-2-methylphenyl)imidazo[5,1-f][1,2,4]triazin-4(3H)-one], the “PDE1A selectivity (versus PDE9A2)” value at PDE1A (ratio of IC50 values PDE1A vs PDE9A2, value greater than 1 indicates greater selectivity for PDE9A2) is on record as 3375. The compound further gave a pIC50 at PDE9A2 (IC50 band, 4.0 μM cGMP substrate, 1 hour at R.T.) of over 6.00. In addition, the “PDE1B selectivity (versus PDE9A2)” value at PDE1B (ratio of IC50 values PDE1B vs PDE9A2, value greater than 1 indicates greater selectivity for PDE9A2) is on record as 1735.
For `CC1CN(Cc2ccc3cccnc3c2)CC1c1nn2c(C3CCOCC3)ncc2c(=O)[nH]1` (single isomer, unassigned; (-)) [(−)-2-((3,4-trans)-4-methyl-1-(quinolin-7-ylmethyl)pyrrolidin-3-yl)-7-(tetrahydro-2H-pyran-4-yl)imidazo[5,1-f][1,2,4]triazin-4(3H)-one], the “PDE1A selectivity (versus PDE9A2)” value on PDE1A (setting [1]) is given as 334. The pIC50 on PDE9A2 (setting [2]) was over 6.00. Besides, the “PDE1B selectivity (versus PDE9A2)” value at PDE1B (setting [1]) is 2610.
On the same counts, the results for `Cc1ccccc1-c1ncc2c(=O)[nH]c(C3CN(Cc4ncccn4)CC3C)nn12` (single isomer, unassigned; (+)) [(+)-2-((3,4-trans)-4-methyl-1-(pyrimidin-2-ylmethyl)pyrrolidin-3-yl)-7-(o-tolyl)imidazo[5,1-f][1,2,4]triazin-4(3H)-one] are 84, over 6.00 and 119.
As to `CC1CN(Cc2nc3ccccn3n2)CC1c1nn2c(C3CCCC3)ncc2c(=O)[nH]1` (single isomer, unassigned; (+)) [(+)-2-((3,4-trans)-1-([1,2,4]triazolo[1,5-a]pyridin-2-ylmethyl)-4-methylpyrrolidin-3-yl)-7-cyclopentylimidazo[5,1-f][1,2,4]triazin-4(3H)-one], at PDE1A (setting [3]), the “PDE1A selectivity (versus PDE9A2)” value is 98. In addition, the pIC50 at PDE9A2 (read-out: Band (PDE9A2 IC50)) is over 6.00. Besides, the “PDE1B selectivity (versus PDE9A2)” value on PDE1B (setting [4]) came to 204.
`CC1CN(Cc2ccccn2)CC1c1nn2c(-c3cccc(F)c3)ncc2c(=O)[nH]1` (single isomer, unassigned; (+)) [(+)-7-(3-fluorophenyl)-2-((3,4-trans)-4-methyl-1-(pyridin-2-ylmethyl)pyrrolidin-3-yl)imidazo[5,1-f][1,2,4]triazin-4(3H)-one]: at PDE1A (setting [3]), the “PDE1A selectivity (versus PDE9A2)” value worked out at 190. For the same compound, on PDE9A2 (read-out: Band (PDE9A2 IC50)), the pIC50 was over 6.00. Besides, on PDE1B (setting [4]), the “PDE1B selectivity (versus PDE9A2)” value is listed as 236.
Turning to `Cc1ccccc1-c1ncc2c(=O)[nH]c(C3CN(Cc4cnccn4)CC3C)nn12` (single isomer, unassigned; (+)) [(+)-2-((3,4-trans)-4-methyl-1-(pyrazin-2-ylmethyl)pyrrolidin-3-yl)-7-(o-tolyl)imidazo[5,1-f][1,2,4]triazin-4(3H)-one], the “PDE1A selectivity (versus PDE9A2)” value at PDE1A (setting [3]) is recorded as 387. For the same compound, the pIC50 on PDE9A2 (read-out: Band (PDE9A2 IC50)) was over 6.00. Also, the “PDE1B selectivity (versus PDE9A2)” value on PDE1B (setting [4]) was determined as 469.
As to `CC1CN(Cc2ccc3nsnc3c2)CC1c1nn2c(C3CCOCC3)ncc2c(=O)[nH]1` (single isomer, unassigned; (+)) [(+)-2-((3,4-trans)-1-(benzo[c][1,2,5]thiadiazol-5-ylmethyl)-4-methylpyrrolidin-3-yl)-7-(tetrahydro-2H-pyran-4-yl)imidazo[5,1-f][1,2,4]triazin-4(3H)-one], at PDE1A (ratio of IC50 values, PDE1A versus PDE9A2, value greater than 1 = greater selectivity for PDE9A2), the “PDE1A selectivity (versus PDE9A2)” value was 212. Besides, the pIC50 at PDE9A2 (Table 3, 4.0 μM cGMP substrate, 1 hour at R.T., read-out: Band (PDE9A2 IC50)) is over 6.00. Besides, the “PDE1B selectivity (versus PDE9A2)” value on PDE1B (ratio of IC50 values, PDE1B versus PDE9A2, value greater than 1 = greater selectivity for PDE9A2) was 473.
`CC1CN(Cc2nccn2C)CC1c1nn2c(C3CCOCC3)ncc2c(=O)[nH]1` (single isomer, unassigned; (+)) [(+)-2-((3,4-trans)-4-methyl-1-((1-methyl-1H-imidazol-2-yl)methyl)pyrrolidin-3-yl)-7-(tetrahydro-2H-pyran-4-yl)imidazo[5,1-f][1,2,4]triazin-4(3H)-one]: the “PDE1A selectivity (versus PDE9A2)” value on PDE1A (setting [6]) came to 197. At PDE9A2 (read-out: Band (PDE9A2 IC50)), the pIC50 was over 6.00. Also, on PDE1B (setting [6]), the “PDE1B selectivity (versus PDE9A2)” value was determined as 107.

Broadly, the pIC50 is the IC50 on a negative log10 scale, so that one unit is a factor of ten.
